The test system of data set [1] is human colon cancer cells (ATCC CCL220). In words: Cytotoxicity assay (MTS/PMS growth inhibition). Format: cell-based. As to conditions: approximately 48 hours with test compound, MTS/PMS readout, concentration not given. How it is done:
The antitumor activity against human colon cancer cells of the novel compounds (as earlier reported) was realized by the following procedure which determines the inhibitory effect of test samples on the growth of human colon cancer cells (ATCC CCL220). The CCL220 cells are grown in RPMI 1640 media+10% Fetal bovine serum+1% Antibiotic/Antimycotic for approximately 48 hours at 37° C./5% CO2 in the presence of the test compound.
Growth/Non-Growth of the cells (e.g., cell density) is determined using Promega's MTS/PMS assay system. MTS (3-(4,5-dimethylthiazol-2-yl)-5-(3-carboxymethoxyphenyl)-2-(4-sulfophenyl)-2H-tetrazolium, inner salt) is an aqueous compound that is reduced to soluble formazan by the presence of NADH formed by dehydrogenases present within the CCL220 cells. The absorbance of the formazan can be measured at 490 nm and is directly proportional to the number of living cells present in the culture. PMS (Phenazine Methosulfate) is added an electron coupling reagent and greatly increases the rate of reduction. […]
In order to establish the accuracy of this assay a Positive Control consisting of 50 μM Methotrexate should not decrease the net absorbance to less than 90% of the Negative Control (CCL220 cells are somewhat resistant to methotrexate) is utilized.

For data set [2], the system named is white mice. The experiment in a line: Animal toxicity bioassay (acute toxicity, intraperitoneal). The following applies: 14 days observation, Litchfield and Wilkinson. It counts as in vivo. As to the method: Acute toxicity was studied on white mice of both sexes with weight ranging between 18-26 grams under intraperitoneal injection of 2% solution of tested compound in starch (the compound was dissolved in starch slime and injected) on the basis of 0.1 ml of solution per 10 g of the animal weight Each dose was tested on the group of 6 animals that were observed during 14 days period. (This method was approved by the Pharmacology committee of Russian Ministry of Health and has been widely used since 1968.) Averaged lethal dose (LD50) of the compound was computed using results of experiments on 5-7 groups of animals using method of Litchfield and Wilkinson. (Belenkii M. L. “Elements of quantative determination of the pharmacological effect,” Leningrad, 1963, 71 pages).

Data set [3] has as its system Mice. As to conditions: cited from earlier work.
A short description of data set [4]: Stability in solution. Format: physicochemical. As to conditions: decomposes quickly when solution is heated or stored for a long time, forming OF-12.
Data set [5] in a line: Solubility in organic solvents. Format: physicochemical.

Consider `CCOc1ccc(C(Cl)=CC(=NN=C2c3ccccc3-c3ccccc32)C(=O)OC)cc1` [3F-19, 4-Chloro-4-(4-ethoxy-phenyl)-2-(fluoren-9-ylidene-hydrazono)-but-3-enoic acid methyl ester], for which the “percent activity against human colon cancer” value in data set [1] stood at 100%. Also, the median lethal dose (LD50) in data set [2] is recorded as greater than 200 mg/kg.
With `O=c1[nH]cc(F)c(=O)[nH]1` [5-FU, fluorouracil], the “IPN-Mice LD50” value in data set [3] was 230 mg/kg.
In the case of `CCOc1ccc(C(=O)CC(O)(NN=C2c3ccccc3-c3ccccc32)C(=O)OC)cc1` (centres unmarked) [OF-13, 4-(4-Ethoxy-phenyl)-2-(N′-fluoren-9-ylidene-hydrazino)-2-hydroxy-4-oxo-butyric acid methyl ester], in data set [1], the “percent activity against human colon cancer” value came to 100%. In data set [4], the Stability in solutions result is recorded as “not stable in solutions”. Besides, the Solubility entry in data set [5] (DMSO, DMFA, dichloroethane, acetonitrile) was “highly soluble”; in data set [5] (hexane) it was “insoluble”. This compound came in with an LD50 in data set [2] greater than 1500 mg/kg.

For orientation: LD50 means the dose at which mortality reaches 50%. A lower LD50 goes with a more toxic substance.
